# Assay results: patent US8563715B2, “Pyrimidine derivative having cell protecting effect and uses thereof” (Zenyaku Kogyo Kabushikikaisha, priority 2008, dated 2013)
# Assays:
# [1] = system: astrocyte/neuron co-culture; assay: Brain cell damage induced by hydrogen peroxide treatment (LDH assay); type: cell-based; conditions: Rattus norvegicus, hydrogen peroxide (250 μM), 24 hours, read-out: 50% inhibition concentration against cell damage in entire co-culture system (EC50 value)
# Experimental: (§1) The brain was removed from 1 to 2 day old Wistar rats (Charles River) or Sprague-Dawley (IGS) rats (Charles River), and the cerebral cortex including the hippocampus was excised under ice cooling. After this cerebral cortex was minced, it was digested with papain solution (9 U/ml) containing DNase I (30 U/ml) at 37 degrees Celsius for 15 minutes, dispersing the cells. After further carrying out mechanical dispersing by pipetting, it was passed through a cell strainer with a pore size of 70 μm, and a cell suspension was obtained. Cells derived from 1.4 cerebra were seeded on 150 mm tissue culture dish (Iwaki Glass), and primary culture was carried out at 37 degrees Celsius and 5% CO2 using a D-MEM medium (Invitrogen) containing 10% heat-inactivated fetal calf serum (JRH). One day after the start of the culture, the nonadherent cells were removed, and the primary cultured astrocytes were obtained by continuing the culture for 4 to 5 further days. The primary cultured astrocytes were dispersed by trypsin treating, suspended in cryopreservation solution, and cryopreserved.
# (§2) After thawing the cryopreserved primary cultured astrocytes, they were seeded on tissue culture plates (Iwaki Glass), and a confluent astrocyte layer was produced by a further 7 days of secondary culture using a D-MEM medium containing 10% heat-inactivated fetal calf serum. Neurons to be used in the co-culture with the astrocyte layer were obtained from fetal rat cerebrum. Briefly, brains were removed from Wistar rats (Charles River) or Sprague-Dawley (IGS) rats (Charles River) of embryonic age 18.5 days, and the cerebral cortex including the hippocampus was excised under ice cooling. After this cerebral cortex was minced, it was digested in papain solution (9 U/ml) containing DNase I (30 U/ml) at 37 degrees Celsius for 15 minutes, dispersing the cells. After further carrying out mechanical dispersing by pipetting, it was passed through a cell strainer with a pore size of 70 μm, and a cell suspension was obtained. This cell suspension was plated at a density of 1.3×10^5 cells/cm^2 on the astrocyte layer, and a co-culture was carried out using D-MEM/F-12 medium (Invitrogen) containing 10% heat-inactivated fetal calf serum and 5% horse serum (Invitrogen). 2 days after the start of the co-culture, cells were treated for 24 hours with 10 μM cytosine arabinoside in order to suppress the excessive cell proliferation of microglia and the like. 8 to 9 days after the start of the co-culture, cells were used for the test. Additionally, using one portion of the cells, immunofluorescent staining and nuclear staining was carried out with astrocyte recognizing antibodies (anti-GFAP) and neuron recognizing antibodies (anti-MAP2), in order to confirm that the present culture system is a co-culture system of astrocytes and neurons.
# (§3) An astrocyte/neuron co-culture cultured on a 96 well plate was used in the test. A predetermined concentration of the test substance and hydrogen peroxide (250 μM) was simultaneously added to the cell culture in each well with continuing cultivation, and analysis was done 24 hours after this treatment. Using an LDH Cytotoxicity Detection Kit (Takara Bio), analysis was carried out in accordance with the included instruction manual, and the damage to the entire co-culture system by the hydrogen peroxide treatment and the protective effect (EC 50 value) of the test substance was evaluated. Further, the cell bodies and the neuronal processes of the neurons were observed by microscope, and the neuroprotective effect was evaluated.
# [2] = system: neurons in astrocyte/neuron co-culture; assay: Brain cell damage induced by hydrogen peroxide treatment (neuroprotective effect, microscope observation); type: cell-based; conditions: Rattus norvegicus, hydrogen peroxide (250 μM), 24 hours, read-out: Concentration for complete inhibition of neuronal death
# Experimental: as §1, §2, §3
compound,measurement,setting,value
"CN(C)c1cc(N2CCOCC2)nc(N2CCN(c3ccccc3)CC2)n1 [Compound 2, 4-dimethylamino-6-morpholino-2-(4-phenylpiperazin-1-yl)pyrimidine]",melting point,,149 °C
same,EC50,[1],18.4 µM
"c1ccc(N2CCN(c3nc(N4CCNCC4)cc(N4CCOCC4)n3)CC2)cc1 [Compound 52, 4-morpholino-2-(4-phenylpiperazin-1-yl)-6-(piperazin-1-yl)pyrimidine]",EC100,[2],30 µM
same,EC50,[1],3.16 µM
"CCCNc1cc(N2CCOCC2)nc(N2CCN(c3ccccc3)CC2)n1 [Compound 56, 4-morpholino-2-(4-phenylpiperazin-1-yl)-6-propylaminopyrimidine]",EC100,[2],10 µM
same,EC50,[1],2.95 µM
"Cc1ccccc1N1CCN(c2nc(N3CCOCC3)cc(N3CCN(c4ccccc4)CC3)n2)CC1 [Compound 61, 2-[4-(2-methylphenyl)piperazin-1-yl]-6-morpholino-4-(4-phenylpiperazin-1-yl)pyrimidine]",EC100,[2],10 µM
same,EC50,[1],6.45 µM
"CC(=O)Nc1c(N2CCOCC2)nc(N2CCOCC2)nc1N1CCC(Cc2ccccc2)CC1 [Compound 78, 5-acetylamino-4-(4-benzylpiperidin-1-yl)-2,6-dimorpholinopyrimidine]",EC100,[2],30 µM
same,EC50,[1],9.75 µM
"Fc1c(N2CCOCC2)nc(N2CCN(C3CCCCC3)CC2)nc1N1CCOCC1 [Compound 123, 2-(4-cyclohexylpiperazin-1-yl)-5-fluoro-4,6-dimorpholinopyrimidine]",EC100,[2],10 µM
same,EC50,[1],2.98 µM
"Fc1ccccc1N1CCN(c2nc(N3CCN(c4ccccc4)CC3)nc(N3CCOCC3)c2F)CC1 [Compound 125, 5-fluoro-4-[4-(2-fluorophenyl)piperazin-1-yl]-6-morpholino-2-(4-phenylpiperazin-1-yl)pyrimidine]",melting point,,140 to 141 °C
same,EC50,[1],0.56 µM
"Fc1ccccc1N1CCN(c2nc(N3CCOCC3)c(F)c(N3CCN(c4ccccc4F)CC3)n2)CC1 [Compound 126, 2,4-bis[4-(2-fluorophenyl)piperazin-1-yl]-5-fluoro-6-morpholinopyrimidine]",melting point,,131 to 132 °C
same,EC50,[1],0.8 µM
"Cc1ccccc1N1CCN(c2nc(N3CCOCC3)c(F)c(N3CCN(c4ccccc4)CC3)n2)CC1 [Compound 128, 5-fluoro-2-[4-(2-methylphenyl)piperazin-1-yl]-6-morpholino-4-(4-phenylpiperazin-1-yl)pyrimidine]",EC100,[2],3 µM
same,EC50,[1],0.3 µM
"Cc1ccc(N2CCN(c3nc(N4CCOCC4)c(F)c(N4CCN(C(=O)OC(C)(C)C)CC4)n3)CC2)cc1 [Compound 153, 4-[4-(tert-butoxycarbonyl)piperazin-1-yl]-5-fluoro-2-[4-(4-methylphenyl)piperazin-1-yl]-6-morpholinopyrimidine]",EC100,[2],3 µM
same,EC50,[1],0.45 µM
"Cc1ccc(N2CCN(c3nc(N4CCOCC4)nc(N4CCN(C)CC4)c3F)CC2)cc1 [Compound 155, 5-fluoro-4-[4-(4-methylphenyl)piperazin-1-yl]-6-(4-methylpiperazin-1-yl)-2-morpholinopyrimidine]",EC100,[2],3 µM
same,EC50,[1],0.32 µM
"Cc1ccc(N2CCN(c3nc(NCCN4CCNCC4)nc(N4CCOCC4)c3F)CC2)cc1 [Compound 158, 5-fluoro-4-[4-(4-methylphenyl)piperazin-1-yl]-6-morpholino-2-[2-(piperazin-1-yl)-ethylamino]pyrimidine]",EC100,[2],1 µM
same,EC50,[1],0.16 µM
"Cc1ccc(N2CCN(c3nc(N4CCOCC4)nc(NCCN4CCOCC4)c3F)CC2)cc1 [Compound 160, 5-fluoro-4-[4-(4-methylphenyl)piperazin-1-yl]-2-morpholino-6-(2-morpholinoethylamino)pyrimidine]",EC100,[2],3 µM
same,EC50,[1],1.08 µM
"CN1CCN(c2nc(N3CCCc4ccccc43)nc(N3CCOCC3)c2F)CC1 [Compound 167, 5-fluoro-4-(4-methylpiperazin-1-yl)-6-morpholino-2-(1,2,3,4-tetrahydro-1H-quinolin-1-yl)pyrimidine]",EC50,[1],0.28 µM
"CC(C)(C)OC(=O)N1CCN(c2nc(N3CCCc4ccccc43)nc(N3CCOCC3)c2F)CC1 [Compound 168, 4-[4-(tert-butoxycarbonyl)piperazin-1-yl]-5-fluoro-6-morpholino-2-(1,2,3,4-tetrahydro-1H-quinolin-1-yl)pyrimidine]",EC100,[2],3 µM
same,EC50,[1],0.31 µM
"CN1CCN(c2nc(N3CCOCC3)nc(N3CCN(c4ccccc4)CC3)c2F)CC1 [Compound 171, 5-fluoro-4-(4-methylpiperazin-1-yl)-2-morpholino-6-(4-phenylpiperazin-1-yl)pyrimidine]",EC50,[1],0.49 µM
"COc1ccc(/C=C/c2nc(NCCN)c(N)c(N3CCOCC3)n2)cc1 [Compound 174, 5-amino-4-(2-aminoethylamino)-2-[2-(4-methoxyphenyl)vinyl]-6-morpholinopyrimidine]",EC100,[2],10 µM
same,EC50,[1],3.11 µM
"Cc1cccc(N2CCN(c3nc(N4CCNCC4)nc(N4CCOCC4)c3F)CC2)c1C [Compound 178, 5-fluoro-4-morpholino-2-(1-piperazinyl)-6-[4-(2,3-xylyl)piperazin-1-yl]pyrimidine]",EC100,[2],3 µM
same,EC50,[1],0.48 µM
"Cc1cccc(N2CCN(c3nc(N4CCOCC4)c(F)c(N4CCN(C(=O)OC(C)(C)C)CC4)n3)CC2)c1C [Compound 179, 4-(4-tert-butoxycarbonylpiperazin-1-yl)-5-fluoro-6-morpholino-2-[4-(2,3-xylyl)piperazin-1-yl]pyrimidine]",EC100,[2],3 µM
same,EC50,[1],0.34 µM
"CN1CCN(c2nc(N3CCN(c4ccccc4Cl)CC3)nc(N3CCOCC3)c2F)CC1 [Compound 187, 2-[4-(2-chlorophenyl)piperazin-1-yl]-5-fluoro-6-(4-methylpiperazin-1-yl)-4-morpholino pyrimidine]",EC100,[2],1 µM
same,EC50,[1],0.33 µM
"CCOc1ccccc1N1CCN(c2nc(N3CCOCC3)c(F)c(N3CCN(C)CC3)n2)CC1 [Compound 190, 2-[4-(2-ethoxyphenyl)piperazin-1-yl]-5-fluoro-4-(4-methylpiperazin-1-yl)-6-morpholinopyrimidine]",EC100,[2],3 µM
same,EC50,[1],0.34 µM
"Cc1cccc(N2CCN(c3nc(N4CCN(Cc5ccncc5)CC4)nc(N4CCOCC4)c3F)CC2)c1C [Compound 191, 5-fluoro-4-morpholino-2-[4-(4-pyridinylmethyl)piperazin-1-yl]-6-[4-(2,3-xylyl)piperazin-1-yl]-pyrimidine]",melting point,,127 to 128 °C
same,EC50,[1],0.73 µM
"Cc1cccc(N2CCN(c3nc(N4CCN(Cc5ccc(N(C)C)cc5)CC4)nc(N4CCOCC4)c3F)CC2)c1C [Compound 192, 5-fluoro-2-[4-(4-dimethylaminobenzyl)piperazin-1-yl]-4-morpholino-6-[4-(2,3-xylyl)piperazin-1-yl]pyrimidine]",EC100,[2],1 µM
same,EC50,[1],0.3 µM
"COc1ccc(/C=C/c2nc(NCC(N)=O)c(N)c(N3CCOCC3)n2)cc1 [Compound 206, 5-amino-4-carbamoylmethylamino-2-[2-(4-methoxyphenyl)vinyl]-6-morpholinopyrimidine]",EC100,[2],10 µM
same,EC50,[1],4.85 µM
"COc1ccc(/C=C/c2nc(NCCN3CCOCC3)c(N)c(N3CCOCC3)n2)cc1 [Compound 207, 5-amino-2-[2-(4-methoxyphenyl)vinyl]-4-morpholino-6-(2-morpholinoethylamino)pyrimidine]",EC100,[2],10 µM
same,EC50,[1],5.8 µM
